Target: T1, OATP1B1 (Homo sapiens, UniProt Q9Y6L6)
T1 construct: expressed in transfected cells; host or cells: A431 epidermoid carcinoma cells
T1 sequence (Q9Y6L6 1-691): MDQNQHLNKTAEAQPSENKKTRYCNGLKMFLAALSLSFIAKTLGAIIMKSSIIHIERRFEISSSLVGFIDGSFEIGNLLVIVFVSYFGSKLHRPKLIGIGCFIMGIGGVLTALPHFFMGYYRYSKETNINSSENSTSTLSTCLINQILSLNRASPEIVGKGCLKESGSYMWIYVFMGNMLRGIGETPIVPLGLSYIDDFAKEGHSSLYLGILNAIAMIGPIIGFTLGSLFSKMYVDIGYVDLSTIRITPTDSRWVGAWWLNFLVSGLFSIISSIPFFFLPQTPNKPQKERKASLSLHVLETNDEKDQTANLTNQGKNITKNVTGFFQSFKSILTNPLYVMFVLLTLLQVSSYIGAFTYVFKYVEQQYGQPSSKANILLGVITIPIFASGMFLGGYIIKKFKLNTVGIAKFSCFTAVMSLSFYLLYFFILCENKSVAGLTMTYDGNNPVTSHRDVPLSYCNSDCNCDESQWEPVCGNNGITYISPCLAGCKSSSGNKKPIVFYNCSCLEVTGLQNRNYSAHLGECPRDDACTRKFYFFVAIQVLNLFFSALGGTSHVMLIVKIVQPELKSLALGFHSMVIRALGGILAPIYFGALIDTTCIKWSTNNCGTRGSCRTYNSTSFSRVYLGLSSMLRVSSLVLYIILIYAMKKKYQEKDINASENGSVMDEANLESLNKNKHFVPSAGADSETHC
Experiment: OATP uptake assay, OATP1B1
Assay type: cell-based
Conditions: human, 10 μM
Procedure: Cell lines: A431 cells overexpressing OATP1B1 or OATP2B1, and their mock transfected controls were generated and characterized previously. The cell lines were cultured in DMEM (Gibco, Thermofisher Scientific, Waltham, MA, USA), supplemented with 10% fetal bovine serum, 2 mM L-glutamine, 100 μg/mL streptomycin, and 100 units/mL penicillin at 37 °C and 5% CO2.
OATP uptake assay: Prior to the experiment, A431 cells (8 × 10^4/well) were seeded on 96-well plates in 200 μL cell culture medium. After 16–24 h, the cells were washed with 200 μL PBS, three times and pre-incubated with 20–200 μM HQNO2-L-Pro, or buffer without HQNO2-L-Pro for 5 min at 37 °C in 50 μL HBSS (Hank’s Balanced Salt Solution, pH 7.4; OATP1B1) or uptake buffer (pH 5.5; OATP2B1 [63]). The reaction was started by the addition of disulfopyrene (6,8-dihydroxy-1,3-pyrenedisulfonic acid disodium salt, Sigma, Darmstadt, Germany) at a final concentration of 10 μM (OATP1B1) or pyranine (8-hydroxypyrene-1,3-pyrenetrisulfonic acid trisodium salt, Sigma, Darmstadt, Germany) at a final concentration of 20 μM (OATP2B1), and the cells were further incubated at 37 °C for 10 min (OATP1B1) or 15 min (OATP2B1). The reaction was stopped by removing the supernatant after which the cells were washed three times with ice-cold PBS. Fluorescence (in 200 μL PBS) was determined using an Enspire plate reader (PerkinElmer, Waltham, MA, USA) with excitation/emission wavelengths of 460/510 nm. OATP-dependent transport was calculated by subtracting fluorescence measured in mock transfected cells. Transport activity was calculated based on the fluorescence signal in the absence (100%) of HQNO2-L-Pro. Experiments were repeated in at least three biological replicates.

## O=C(O)[C@@H]1CCCN1Cc1cc([N+](=O)[O-])c2cccnc2c1O [HQNO2-L-Pro, (2S)-1-((8-hydroxy-5-nitroquinolin-7-yl)methyl)pyrrolidin-1-ium-2-carboxylate]
A431 cells overexpressing OATP1B1, pH 7.4, probe disulfopyrene, 100 μM, absence of compound = 100%, n = 3, ± SD, read-out: transport activity % OATP1B1
  activity at 10 min, 100 µM: 88.1 ± 5.9%
A431 cells overexpressing OATP1B1, pH 7.4, probe disulfopyrene, absence of compound = 100%, n = 3, ± SD, read-out: transport activity % OATP1B1
  activity at 10 min, 10 µM: 106 ± 4.1%
Probe disulfopyrene, at 100 μM, A431 cells overexpressing OATP1B1, pH 7.4, read-out: inhibition of OATP1B1 function
  inhibition at 10 min, 100 µM: < 20%

Reference: article PMC9820345, “Metal Complexes of a 5-Nitro-8-Hydroxyquinoline-Proline Hybrid with Enhanced Water Solubility Targeting Multidrug Resistant Cancer Cells” (International Journal of Molecular Sciences, 2022)
